According to publication PMC9815576, “Cell-surface protein YwfG of Lactococcus lactis binds to α-1,2-linked mannose” (PLOS ONE, 2023):
Where “and” joins values, the source holds several entries; their conditions need not be identical. Identical values can stand only once.

System: YwfG28–511
Test: ITC of sugars against YwfG28–511
Format: binding, Lactococcus lactis subsp. lactis G50
Settings: 100 μM YwfG28–511, 25°C
Text: (§1) A MicroCal iTC200 system (Malvern Panalytical, Almelo, Netherlands) was used to measure enthalpy changes associated with interactions between the YwfG variants and the following yeast cell-wall components: the monosaccharides D-glucose, D-galactose, D-mannose, D-fucose, N-acetyl-D-glucosamine (GlcNAc), and 2-(acetylamino)-2-deoxy-D-galactose (GalNAc) (Sigma-Aldrich); α-1,2-, α-1,3-, α-1,4-, and α-1,6-mannobiose (Dextra Laboratories, Reading, UK); mannan from S. cerevisiae (Sigma-Aldrich); and yeast mannoproteins.
(§2) A solution of YwfG variant (100 μM YwfG28–270, YwfG28–336, YwfG28–511, or MubR4 in 20 mM Tris-HCl [pH 7.5]) was placed in a 200-μL calorimeter cell, and test solution (10 mM for monosaccharides, 2 mM for monosaccharides and mannobioses, 10 mg mL^−1 for yeast mannan, OD280 1.0 for mannoproteins) was loaded into the injection syringe. The test solution was titrated into the sample cell as a sequence of 20 injections of 2-μL aliquots each. All experiments were performed at 25°C.

Row | Structure (SMILES) | Interaction with YwfG28–511 observed by ITC
1 | CO[C@H]1O[C@H](CO)[C@@H](O)[C@H](O)[C@@H]1O [methyl α-D-mannoside] | only combination of variant and monosaccharide that showed an interaction was YwfG28–270 with D-mannose
2 | OC[C@H]1O[C@H](O[C@@H]2C(O)O[C@H](CO)[C@@H](O)[C@@H]2O)[C@@H](O)[C@@H](O)[C@@H]1O (stereo partly drawn) [α-1,2-mannobiose] | No binding
3 | OC[C@H]1O[C@H](O[C@H]2[C@H](O)[C@@H](CO)OC(O)[C@H]2O)[C@@H](O)[C@@H](O)[C@@H]1O (stereo partly drawn) [α-1,3-mannobiose] | No binding
4 | OC[C@H]1O[C@H](O[C@H]2[C@H](O)[C@H](O)C(O)O[C@@H]2CO)[C@@H](O)[C@@H](O)[C@@H]1O (stereo partly drawn) [α-1,4-mannobiose] | No binding
5 | OC[C@H]1O[C@H](OC[C@H]2O[C@H](O)[C@@H](O)[C@@H](O)[C@@H]2O)[C@@H](O)[C@@H](O)[C@@H]1O [α-1,6-mannobiose] | No binding

System: MubR4 (YwfG residues 860–1034)
Test: ITC of monosaccharides against MubR4
Format: binding, Lactococcus lactis subsp. lactis G50
Settings: 100 μM MubR4, 25°C
Text: as §1, §2

Row | Structure (SMILES) | Interaction with MubR4 observed by ITC
6 | CO[C@H]1O[C@H](CO)[C@@H](O)[C@H](O)[C@@H]1O [methyl α-D-mannoside] | only combination of variant and monosaccharide that showed an interaction was YwfG28–270 with D-mannose

System: legume (L)-type lectin–like module of SraP
Test: not given
Set-up: method as in PMID 24901708
Settings: cited from earlier work

Row | Structure (SMILES) | Binding to the L-type lectin–like module of SraP
7 | CC(=O)N[C@H]1[C@H]([C@H](O)[C@H](O)CO)OC(O)(C(=O)O)C[C@@H]1O (some centres unmarked) [N-acetylneuraminic acid] | specifically binds

System: yeast cells
Test: Aggregation of yeast cells by lactococcal cells
Format: cell-based, Saccharomyces cerevisiae
Settings: 1 mM
Procedure: Lactococcal cells were cultured in CDMG and suspended in PBS to an OD600 of 1.0.

Row | Structure (SMILES) | Inhibition of aggregation induced by L. lactis G50
8 | CO[C@H]1O[C@H](CO)[C@@H](O)[C@H](O)[C@@H]1O [methyl α-D-mannoside] | inhibited

System: YwfG28–336
Test: ITC of sugars against YwfG28–336
Format: binding, Lactococcus lactis subsp. lactis G50
Settings: 100 μM YwfG28–336, 25°C
Text: as §1, §2

Row | Structure (SMILES) | Interaction with YwfG28–336 observed by ITC
9 | CO[C@H]1O[C@H](CO)[C@@H](O)[C@H](O)[C@@H]1O [methyl α-D-mannoside] | only combination of variant and monosaccharide that showed an interaction was YwfG28–270 with D-mannose
10 | OC[C@H]1O[C@H](O[C@@H]2C(O)O[C@H](CO)[C@@H](O)[C@@H]2O)[C@@H](O)[C@@H](O)[C@@H]1O (stereo partly drawn) [α-1,2-mannobiose] | No binding
11 | OC[C@H]1O[C@H](O[C@H]2[C@H](O)[C@@H](CO)OC(O)[C@H]2O)[C@@H](O)[C@@H](O)[C@@H]1O (stereo partly drawn) [α-1,3-mannobiose] | No binding
12 | OC[C@H]1O[C@H](O[C@H]2[C@H](O)[C@H](O)C(O)O[C@@H]2CO)[C@@H](O)[C@@H](O)[C@@H]1O (stereo partly drawn) [α-1,4-mannobiose] | No binding
13 | OC[C@H]1O[C@H](OC[C@H]2O[C@H](O)[C@@H](O)[C@@H](O)[C@@H]2O)[C@@H](O)[C@@H](O)[C@@H]1O [α-1,6-mannobiose] | No binding

Molecular target: YwfG28–270 (L-type lectin domain of YwfG) (Lactococcus lactis subsp. lactis, UniProt S6FKX6)
Sequence (S6FKX6 entry or part of it): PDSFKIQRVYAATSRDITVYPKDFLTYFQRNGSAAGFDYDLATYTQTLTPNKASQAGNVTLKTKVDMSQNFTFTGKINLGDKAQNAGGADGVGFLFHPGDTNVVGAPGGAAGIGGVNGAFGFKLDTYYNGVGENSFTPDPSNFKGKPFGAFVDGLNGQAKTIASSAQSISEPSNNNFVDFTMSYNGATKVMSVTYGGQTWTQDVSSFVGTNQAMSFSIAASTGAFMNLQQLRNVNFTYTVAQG
Test: Isothermal titration calorimetry (ITC) of sugars, mannan and mannoproteins against YwfG28–270
Format: binding, Lactococcus lactis subsp. lactis G50
Settings: 100 μM YwfG28–270, 25°C
Text: as §1, §2

Row | Structure (SMILES) | Interaction with YwfG28–270 observed by ITC
14 | CO[C@H]1O[C@H](CO)[C@@H](O)[C@H](O)[C@@H]1O [methyl α-D-mannoside] | only combination of variant and monosaccharide that showed an interaction was YwfG28–270 with D-mannose
15 | OC[C@H]1O[C@H](O[C@@H]2C(O)O[C@H](CO)[C@@H](O)[C@@H]2O)[C@@H](O)[C@@H](O)[C@@H]1O (stereo partly drawn) [α-1,2-mannobiose] | bound
16 | OC[C@H]1O[C@H](O[C@H]2[C@H](O)[C@@H](CO)OC(O)[C@H]2O)[C@@H](O)[C@@H](O)[C@@H]1O (stereo partly drawn) [α-1,3-mannobiose] | bound
17 | OC[C@H]1O[C@H](O[C@H]2[C@H](O)[C@H](O)C(O)O[C@@H]2CO)[C@@H](O)[C@@H](O)[C@@H]1O (stereo partly drawn) [α-1,4-mannobiose] | bound
18 | OC[C@H]1O[C@H](OC[C@H]2O[C@H](O)[C@@H](O)[C@@H](O)[C@@H]2O)[C@@H](O)[C@@H](O)[C@@H]1O [α-1,6-mannobiose] | bound

Same assay, conditions: ITC, 25°C, 100 μM YwfG28–270 in 20 mM Tris-HCl pH 7.5; D-mannose: fixed stoichiometry (N = 1)

Row | Structure (SMILES) | N (sites), stoichiometry
19 | OC[C@H]1O[C@H](O[C@@H]2C(O)O[C@H](CO)[C@@H](O)[C@@H]2O)[C@@H](O)[C@@H](O)[C@@H]1O (stereo partly drawn) [α-1,2-mannobiose] | 1.19 ± 0.0104 sites
20 | OC[C@H]1O[C@H](O[C@H]2[C@H](O)[C@@H](CO)OC(O)[C@H]2O)[C@@H](O)[C@@H](O)[C@@H]1O (stereo partly drawn) [α-1,3-mannobiose] | 0.757 ± 0.148 sites
21 | OC[C@H]1O[C@H](O[C@H]2[C@H](O)[C@H](O)C(O)O[C@@H]2CO)[C@@H](O)[C@@H](O)[C@@H]1O (stereo partly drawn) [α-1,4-mannobiose] | 1.82 ± 0.171 sites
22 | OC[C@H]1O[C@H](OC[C@H]2O[C@H](O)[C@@H](O)[C@@H](O)[C@@H]2O)[C@@H](O)[C@@H](O)[C@@H]1O [α-1,6-mannobiose] | 1.21 ± 0.0839 sites

Same assay, conditions: ITC, 25°C, 100 μM YwfG28–270 in 20 mM Tris-HCl pH 7.5; D-mannose: fixed stoichiometry (N = 1); read-out: KD, dissociation constant

Row | Structure (SMILES) | Kd
23 | OC[C@H]1O[C@H](O[C@@H]2C(O)O[C@H](CO)[C@@H](O)[C@@H]2O)[C@@H](O)[C@@H](O)[C@@H]1O (stereo partly drawn) [α-1,2-mannobiose] | 34 µM and 34.4 µM
24 | OC[C@H]1O[C@H](O[C@H]2[C@H](O)[C@@H](CO)OC(O)[C@H]2O)[C@@H](O)[C@@H](O)[C@@H]1O (stereo partly drawn) [α-1,3-mannobiose] | 172 ± 21 µM
25 | OC[C@H]1O[C@H](O[C@H]2[C@H](O)[C@H](O)C(O)O[C@@H]2CO)[C@@H](O)[C@@H](O)[C@@H]1O (stereo partly drawn) [α-1,4-mannobiose] | 328 ± 91 µM
26 | OC[C@H]1O[C@H](OC[C@H]2O[C@H](O)[C@@H](O)[C@@H](O)[C@@H]2O)[C@@H](O)[C@@H](O)[C@@H]1O [α-1,6-mannobiose] | 210 ± 13 µM

Same assay, conditions: ITC, 25°C, YwfG28–270; D-mannose: fixed stoichiometry (N = 1)

Row | Structure (SMILES) | ΔH, enthalpy change | ΔS, entropy change
27 | OC[C@H]1O[C@H](O[C@@H]2C(O)O[C@H](CO)[C@@H](O)[C@@H]2O)[C@@H](O)[C@@H](O)[C@@H]1O (stereo partly drawn) [α-1,2-mannobiose] | -5.236 ± 0.06207 kcal/mol | 2.86 cal/mol/deg
28 | OC[C@H]1O[C@H](O[C@H]2[C@H](O)[C@@H](CO)OC(O)[C@H]2O)[C@@H](O)[C@@H](O)[C@@H]1O (stereo partly drawn) [α-1,3-mannobiose] | -6.073 ± 1.387 kcal/mol | −3.15 cal/mol/deg
29 | OC[C@H]1O[C@H](O[C@H]2[C@H](O)[C@H](O)C(O)O[C@@H]2CO)[C@@H](O)[C@@H](O)[C@@H]1O (stereo partly drawn) [α-1,4-mannobiose] | -2.206 ± 0.3097 kcal/mol | 9.55 cal/mol/deg
30 | OC[C@H]1O[C@H](OC[C@H]2O[C@H](O)[C@@H](O)[C@@H](O)[C@@H]2O)[C@@H](O)[C@@H](O)[C@@H]1O [α-1,6-mannobiose] | -4.235 ± 0.3728 kcal/mol | 2.62 cal/mol/deg

System: yeast X2180-1A
Test: Inhibition by sugars of yeast cell aggregation induced by YwfG variants
Format: cell-based, Saccharomyces cerevisiae
Settings: sugar 1 mM as printed
Procedure: Saccharomyces cerevisiae X2180-1A was cultured in YPD medium to an OD600 of 0.6.

Row | Structure (SMILES) | Inhibition of aggregation induced by YwfG28–336 | Inhibition of aggregation induced by YwfG28–511
31 | CO[C@H]1O[C@H](CO)[C@@H](O)[C@H](O)[C@@H]1O [methyl α-D-mannoside] | inhibited | not by YwfG28–270 or YwfG28–511 was inhibited
32 | OC[C@H]1O[C@H](O[C@@H]2C(O)O[C@H](CO)[C@@H](O)[C@@H]2O)[C@@H](O)[C@@H](O)[C@@H]1O (stereo partly drawn) [α-1,2-mannobiose] | clearly inhibited | clearly inhibited
33 | OC[C@H]1O[C@H](O[C@H]2[C@H](O)[C@@H](CO)OC(O)[C@H]2O)[C@@H](O)[C@@H](O)[C@@H]1O (stereo partly drawn) [α-1,3-mannobiose] | weakly inhibited | weakly inhibited
34 | OC[C@H]1O[C@H](O[C@H]2[C@H](O)[C@H](O)C(O)O[C@@H]2CO)[C@@H](O)[C@@H](O)[C@@H]1O (stereo partly drawn) [α-1,4-mannobiose] | weakly inhibited | weakly inhibited
35 | OC[C@H]1O[C@H](OC[C@H]2O[C@H](O)[C@@H](O)[C@@H](O)[C@@H]2O)[C@@H](O)[C@@H](O)[C@@H]1O [α-1,6-mannobiose] | weakly inhibited | weakly inhibited
